{"source": "patent US5866574A", "about": "“Pancreatitis remedy” (Kyowa Hakko Kogyo Co., Ltd., priority 1997, dated 1999)", "key": {"[1]": {"test_system": "adenosine uptake", "conditions": "Nucleosides & Nucleotides, 10, 975-982 (1991); cited from earlier work"}, "[2]": {"test_system": "murine cerulein pancreatitis", "assay": "effects on murine cerulein pancreatitis (serum amylase, lipase, GPT)", "assay_type": "in vivo, murine (female BALB/C mice)", "conditions": "mean±SEM", "protocol": "Test of the effects on murine cerulein pancreatitis\nExperiment was conducted in accordance with the method described in Digestive Diseases and Science, 37, 274-279 (1992). Female BALB/C mice weighing 17 to 24 g were fasted for 16 hours. Water was provided ad libitum. Acute pancreatitis was induced by the administration of seven intraperitoueally injections of cerulein (50 μg/kg) at hourly intervals. Blood was drawn from abdominal vein, 3, 6, and 9 hours after the first injection of cerulein in case of Compound 1, Compound 2 and compound 3, while in case of Compound 4, blood was drawn therefrom 7 hours after the first injection of cerulein. Blood samples were centrifuged at 4° C. and 3,000 rpm for 10 minutes, and serum was separated. Serum amylase (Amy), lipase (Lip), and glutamic pyruvic transaminase (GPT) activities were measured. For Compound 1, Compound 2 and Compound 3, serum Amy was assayed with AU500/550 specific reagent \"Katayama\" Amy test(Katayama Chemical Industry Co., Ltd.); for Compound 4, serum Amy was assayed with \"Rikitech P-AMY EPS\" of BM pancreas-related reagent series (Boehringer Mannheim K. K.). Serum GPT was assayed with \"Katayama\" GPT test (Katayama Chemical Industry, Co., Ltd.). Serum Lip was assayed with an auto-analyzer reagent \"Kyowa\" Determiner Lipase (Kyowa Medex, Co., Ltd.). Compound 1, Compound 2, and Compound 3 were suspended in 0.5% methyl cellulose, and […] before the first injection of cerulein, the resulting suspension was orally given at a dose of 10 ml/kg. The solvent (0.5% methyl cellulose) was similarly given to a control group. Compound 4 was dissolved in distilled water, which was adjusted to pH 2 with 0.1N HCl, and then the resulting solution was adjusted to pH 4.5 with 0.1N sodium hydroxide. Compound 4 was orally administered one hour before the first injection of cerulein. The solvent (distilled water for injections, after adjustment to pH 4.5 with 0.1N HCl) was similarly given to a control group.\nResults are expressed as means±SEM where appropriate. Difference between normal group and control group were evaluated using the Wilcoxon's rank sum test. And for differences between control group and test compound-treated group, the Steel's test was used for Compound 1 and the Wilcoxon's rank sum test was used for Compounds 2, Compound 3 and Compound 4.\nThe effects of Compound 1, Compound 2 and Compound 3 on serum Amy, serum Lip and serum GPT are shown in Tables 2, 3 and 4; and the effect of Compound 4 are shown in Table 5."}, "[3]": {"test_system": "dd-strain male mice", "assay": "Acute Toxicity Test", "assay_type": "in vivo", "conditions": "mortality seven days after administration", "text": "Test compounds were orally or intraperitoneally administered to groups of dd-strain male mice weighing 20±1 g, each group consisting of three mice."}, "[4]": {"conditions": "10 mg/kg oral, 7 hours after the first injection of cerulein"}, "[5]": {"conditions": "30 mg/kg oral, 3 h after the first injection of cerulein"}, "[6]": {"conditions": "30 mg/kg oral, 6 h after the first injection of cerulein"}, "[7]": {"conditions": "30 mg/kg oral, 9 h after the first injection of cerulein"}, "[8]": {"conditions": "300 mg/kg oral, 3 h after the first injection of cerulein"}, "[9]": {"conditions": "300 mg/kg oral, 6 h after the first injection of cerulein"}, "[10]": {"conditions": "300 mg/kg oral, 9 h after the first injection of cerulein"}, "[11]": {"conditions": "10 mg/kg oral, 3 h after the first injection of cerulein"}, "[12]": {"conditions": "10 mg/kg oral, 6 h after the first injection of cerulein"}, "[13]": {"conditions": "10 mg/kg oral, 9 h after the first injection of cerulein"}}, "note": "Counter-ions that a name gives are not always drawn."}
{"smiles": "OCCN(CCO)c1nc(N2CCCCC2)c2nc(N(CCO)CCO)nc(N3CCCCC3)c2n1", "note": "[dipyridamole]", "values": [{"measurement": "action of inhibiting adenosine uptake", "setting": "[1]", "result": "have an action of inhibiting adenosine uptake"}]}
{"smiles": "CCOc1cc2c(N3CCC(n4c(=O)c5cc(C)ccc5n(C)c4=O)CC3)nc(N3CCOCC3)nc2cc1OCCO", "note": "[Compound 4, 3-[1-[6-ethoxy-7-(2-hidroxyethyl)oxy-2-morpholino-4-quinazolynyl]-4-piperidinyl]-1,2,3,4-tetrahydro-1,6-dimethyl-2,4-dioxoquinazoline]", "values": [{"measurement": "Serum Amirase", "setting": "[2]; 10 mg/kg oral, 7 hours after the first injection of cerulein, P-AMY assay", "result": "14690 ± 922", "unit": "IU/l"}, {"measurement": "Serum GPT", "setting": "[2]; [4]", "result": "67 ± 2", "unit": "IU/l"}, {"measurement": "Serum lipase", "setting": "[2]; [4]", "result": "195 ± 23", "unit": "IU/l"}]}
{"smiles": "COc1cc(C(=O)OCCCN2CCCN(CCCOC(=O)c3cc(OC)c(OC)c(OC)c3)CC2)cc(OC)c1OC", "note": "[dilazep]", "values": [{"measurement": "action of inhibiting adenosine uptake", "setting": "[1]", "result": "have an action of inhibiting adenosine uptake"}]}
{"smiles": "NC(=O)C1CN(Cc2nc(-c3ccccc3)c(-c3ccccc3)o2)CCN1CC(=O)Nc1c(Cl)cc([N+](=O)[O-])cc1Cl", "note": "(stereo not drawn) [Compound 3, 2-Aminocarbonyl-N-(2,6-dichloro-4-nitrophenyl)-4-[(4,5-diphenyl-2-oxazolyl)methyl]-1-piperazine acetamide . dihydrochloride salt]", "values": [{"measurement": "Serum GPT", "setting": "[2]; [5]", "result": "64 ± 11", "unit": "IU/L"}, {"measurement": "Serum amylase", "setting": "[2]; [5]", "result": "4050 ± 309", "unit": "IU/L"}, {"measurement": "Serum lipase", "setting": "[2]; [5]", "result": "243 ± 40", "unit": "IU/L"}, {"measurement": "Serum GPT", "setting": "[2]; [6]", "result": "40 ± 1", "unit": "IU/L"}, {"measurement": "Serum amylase", "setting": "[2]; [6]", "result": "3733 ± 149", "unit": "IU/L"}, {"measurement": "Serum lipase", "setting": "[2]; [6]", "result": "135 ± 6", "unit": "IU/L"}, {"measurement": "Serum GPT", "setting": "[2]; [7]", "result": "59 ± 7", "unit": "IU/L"}, {"measurement": "Serum amylase", "setting": "[2]; [7]", "result": "3958 ± 146", "unit": "IU/L"}, {"measurement": "Serum lipase", "setting": "[2]; [7]", "result": "200± 13", "unit": "IU/L"}]}
{"smiles": "NC(=O)C1CN(CCCCC(c2ccc(F)cc2)c2ccc(F)cc2)CCN1CC(=O)Nc1c(Cl)cc(N)cc1Cl", "note": "(stereo not drawn) [Compound 2, 2-Aminocarbonyl-N-(4-amino-2,6-dichlorophenyl)-4-[5,5-bis(4-fluorophenyl)pentyl]-1-piperazine acetamide]", "values": [{"measurement": "minimum lethal dose (MLD)", "setting": "[3]; intraperitoneal dosing", "result": "greater than 100 mg/kg"}, {"measurement": "minimum lethal dose (MLD)", "setting": "[3]; oral dosing", "result": "greater than 300 mg/kg"}, {"measurement": "Serum GPT", "setting": "[2]; [8]", "result": "55 ± 2", "unit": "IU/L"}, {"measurement": "Serum amylase", "setting": "[2]; [8]", "result": "4967 ± 291", "unit": "IU/L"}, {"measurement": "Serum lipase", "setting": "[2]; [8]", "result": "238 ± 9", "unit": "IU/L"}, {"measurement": "Serum GPT", "setting": "[2]; [9]", "result": "59 ± 6", "unit": "IU/L"}, {"measurement": "Serum amylase", "setting": "[2]; [9]", "result": "4417 ± 305", "unit": "IU/L"}, {"measurement": "Serum lipase", "setting": "[2]; [9]", "result": "217 ± 51", "unit": "IU/L"}, {"measurement": "Serum GPT", "setting": "[2]; [10]", "result": "129 ± 23", "unit": "IU/L"}, {"measurement": "Serum amylase", "setting": "[2]; [10]", "result": "9517 ± 23", "unit": "IU/L"}, {"measurement": "Serum lipase", "setting": "[2]; [10]", "result": "726 ± 23", "unit": "IU/L"}]}
{"smiles": "Cc1cccc(C)c1NC(=O)CN1CCN(CCCC(c2ccc(F)cc2)c2ccc(F)cc2)CC1", "note": "[lidoflazine]", "values": [{"measurement": "action of inhibiting adenosine uptake", "setting": "[1]", "result": "have an action of inhibiting adenosine uptake"}]}
{"smiles": "COc1cc(C(=O)OCCCN(C)CCN(C)CCCOC(=O)c2cc(OC)c(OC)c(OC)c2)cc(OC)c1OC", "note": "[hexobendine]", "values": [{"measurement": "action of inhibiting adenosine uptake", "setting": "[1]", "result": "have an action of inhibiting adenosine uptake"}]}
{"smiles": "NC(=O)C1CN(CCCCC(c2ccc(F)cc2)c2ccc(F)cc2)CCN1CC(=O)Nc1c(Cl)cc(N)cc1Cl", "note": "(stereo not drawn) [Compound R75231]", "values": [{"measurement": "action of inhibiting adenosine uptake", "setting": "[1]", "result": "have an action of inhibiting adenosine uptake"}]}
{"smiles": "CCOc1cc2nc(N3CCOCC3)nc(N3CCC(n4c(=O)c5cc(C)ccc5n(C)c4=O)CC3)c2cc1OCC", "note": "[Compound 1, 3-[1-(6,7-Diethoxy-2-morpholino-4-quinazolynyl)-4-piperidinyl]-1,2,3,4-tetrahydro-1,6-dimethyl-2,4-dioxoquinazoline hydrochloride salt]", "values": [{"measurement": "minimum lethal dose (MLD)", "setting": "[3]; intraperitoneal dosing", "result": "greater than 100 mg/kg"}, {"measurement": "minimum lethal dose (MLD)", "setting": "[3]; oral dosing", "result": "greater than 1000 mg/kg"}, {"measurement": "Serum GPT", "setting": "[2]; [11]", "result": "37 ± 3", "unit": "IU/L"}, {"measurement": "Serum amylase", "setting": "[2]; [11]", "result": "4283 ± 245", "unit": "IU/L"}, {"measurement": "Serum lipase", "setting": "[2]; [11]", "result": "55 ± 3", "unit": "IU/L"}, {"measurement": "Serum GPT", "setting": "[2]; [12]", "result": "50 ± 3", "unit": "IU/L"}, {"measurement": "Serum amylase", "setting": "[2]; [12]", "result": "4967 ± 167", "unit": "IU/L"}, {"measurement": "Serum lipase", "setting": "[2]; [12]", "result": "91 ± 22", "unit": "IU/L"}, {"measurement": "Serum GPT", "setting": "[2]; [13]", "result": "76 ± 5", "unit": "IU/L"}, {"measurement": "Serum amylase", "setting": "[2]; [13]", "result": "14817 ± 1459", "unit": "IU/L"}, {"measurement": "Serum lipase", "setting": "[2]; [13]", "result": "466 ± 74", "unit": "IU/L"}, {"measurement": "Serum GPT", "setting": "[2]; [5]", "result": "32 ± 3", "unit": "IU/L"}, {"measurement": "Serum amylase", "setting": "[2]; [5]", "result": "4133 ± 264", "unit": "IU/L"}, {"measurement": "Serum lipase", "setting": "[2]; [5]", "result": "58 ± 5", "unit": "IU/L"}, {"measurement": "Serum GPT", "setting": "[2]; [6]", "result": "51 ± 6", "unit": "IU/L"}, {"measurement": "Serum amylase", "setting": "[2]; [6]", "result": "5200 ± 274", "unit": "IU/L"}, {"measurement": "Serum lipase", "setting": "[2]; [6]", "result": "81 ± 8", "unit": "IU/L"}, {"measurement": "Serum GPT", "setting": "[2]; [7]", "result": "52 ± 5", "unit": "IU/L"}, {"measurement": "Serum amylase", "setting": "[2]; [7]", "result": "5658 ± 682", "unit": "IU/L"}, {"measurement": "Serum lipase", "setting": "[2]; [7]", "result": "95 ± 15", "unit": "IU/L"}]}
